Test results from patent publication US5451564A, “Antimicrobial composition comprising N-hydroxy heterocyclic thiones” (priority 1991, dated 1995).

Legend:
[1] = aqueous solubility of zinc complex after milling in pyrophosphate solution and dilution with distilled water until clear; type: physicochemical; settings: for solubility in the presence of pyrophosphate (in words): relative to absence of oxy-phosphorus compound
Procedure: The concentration of the 2:1 zinc complex was then determined.
The zinc complex was milled in a 0.1 molar solution of tetrasodium pyrophosphate as described in Example 1. This was then diluted with distilled water until a clear solution was obtained.
These solutions were prepared by the method described in Example 1.

[2] = tested on: Pseudomonas aeruginosa (ATCC 19429); assay: survival of bacteria in shampoo preserved with biocide; type: cell-based
Procedure: A shampoo having the following composition
*Empicol, Empilan and Empigen are registered Trademarks of Albright and Wilson, was prepared by stirring the Empicol ESB70 in water, and then adding the Empilan 2502 followed by the Empigen BB to give a clear homogenous solution. An aqueous solution of citric acid was added with stirring to give a pH of 7. Finally, the sodium chloride was added and the whole diluted to parts by adding water.
Aliquots (20 parts) of the above shampoo were then prepared with concentrations of the biocides indicated in Table 4 at 500, 125, 31.25 and 7.8 ppm of active ingredient.
The above samples were then challenged with a 0.2 parts by volume inoculum of a 24 hour culture of Pseudomonas aeruginosa (ATCC 19429) containing approximately 1×10^8 colony forming units (cfu's) per milliliter. The samples were then incubated in the dark at 25° C., 1 milliliter samples taken after 24 hours, 48 hours and 7 days and the number of surviving bacteria determined.
The procedure described in Example 7 was repeated, except that the compounds and formulations used in that example were replaced by a commercially available formulation of zinc pyrithione or a 1% dispersion of the 2:1 complex of 1-hydroxy-2-pyridinethione and zinc in an aqueous solution of 0.1M tetrasodium pyrophosphate prepared as described in Example 1.

Aspergillus niger = settings: agar, 4 days at 25° C; 1% dispersion in 0.1 molar pyrophosphate (sample a: nil)
Procedure: (§1) In the microbiological testing, the compositions were tested for anti-microbial activity against bacteria and/or fungi including a yeast. The bacteria used were one or more of Eshcerichia coli, Pseudomonas aeruginosa, Staphylococcus aureus and Bacillus subtills. The fungi/yeast used were one or more of Aspergillus niger, Candida albicans, Aureobasidum pullulans, Gliocladium roseum, and Penicillium pinophilum.
(§2) These test organisms will be referred to hereafter as EC, PA, SA, BS, AN CA, AP, GR and PP respectively.
(§3) The material to be tested was dissolved in a suitable solvent and the solution obtained diluted with a further quantity of the same solvent to give a desired product concentration.
(§4) To a suitable agar medium was added a quantity of the product solution to give a desired concentration of the product. The agar medium containing the product was poured into petri dish plates and allowed to set.
(§5) The test organisms were surface inoculated onto the test plates by means of a multi-point inoculator. Each test plate was inoculated with both bacteria, fungi and yeast. The plates were incubated for four days at 25° C.
(§6) At the end of the incubation period, the plates were assessed visually for growth of the micro-organisms. The concentration of the product which inhibited the growth of a particular micro-organisms was recorded. This is the minimum inhibitory concentration (M.I.C.).
(§7) Generally, the compositions are evaluated against bacteria at the 25 and 100 ppm levels, and against fungi and yeast at the 5, 25 and 100 ppm levels.
(§8) 1% dispersions of the 1:2 zinc complex obtained from 1-hydroxy-2-pyridinethione were prepared in 0.1 molar solutions of various pyrophosphates as described in Example 1.

Aureobasidum pullulans = settings: agar, 4 days at 25° C; 1% dispersion in 0.1 molar pyrophosphate (sample a: nil)
Procedure: as §1, §2, §3, §4, §5, §6, §7, §8

Bacillus subtills = settings: agar, 4 days at 25° C; 1% dispersion in 0.1 molar pyrophosphate (sample a: nil)
Procedure: as §1, §2, §3, §4, §5, §6, §7, §8

Candida albicans = settings: agar, 4 days at 25° C; 1% dispersion in 0.1 molar pyrophosphate (sample a: nil)
Procedure: as §1, §2, §3, §4, §5, §6, §7, §8

Eshcerichia coli = settings: agar, 4 days at 25° C; 1% dispersion in 0.1 molar pyrophosphate (sample a: nil)
Procedure: as §1, §2, §3, §4, §5, §6, §7, §8

Gliocladium roseum = settings: agar, 4 days at 25° C; 1% dispersion in 0.1 molar pyrophosphate (sample a: nil)
Procedure: as §1, §2, §3, §4, §5, §6, §7, §8

Penicillium pinophilum = settings: agar, 4 days at 25° C; 1% dispersion in 0.1 molar pyrophosphate (sample a: nil)
Procedure: as §1, §2, §3, §4, §5, §6, §7, §8

Pseudomonas aeruginosa = settings: agar, 4 days at 25° C; 1% dispersion in 0.1 molar pyrophosphate (sample a: nil)
Procedure: as §1, §2, §3, §4, §5, §6, §7, §8

Staphylococcus aureus = settings: agar, 4 days at 25° C; 1% dispersion in 0.1 molar pyrophosphate (sample a: nil)
Procedure: as §1, §2, §3, §4, §5, §6, §7, §8

[3] = tested on: bacteria, fungi, yeasts and algae; settings: in the presence of pyrophosphate salts
Procedure: Further aspects of the present invention are described in the following illustrative examples. Unless otherwise stated all refer to parts by weight.
as §1

[4] = tested on: mixed algal suspension (Stichococcus bacillaris, Gloecapsa alpicola, Nostoc commune, Trentepohlia aurea); settings: zinc complex of 1-hydroxy-2-pyridinethione as 1% dispersion in 0.1M pyrophosphate (sample a: nil); re-challenge after 2 weeks, examined after 4 weeks
Procedure: A sample containing no biocide was include as a control.
The above aliquots were then inoculated with 0.1 parts by volume of a mixed algal suspension of 7 day cultures of the following algae.
The samples were then incubated at 15° to 20° C. and exposed to artificial illumination of between 700 and 1200 LUX over a two week period, where the illumination was provided from the side and the light varied over a 24 hour period to give 16 hours illumination and 8 hours darkness.
After a two week incubation period, the samples were re-challenged with the mixed algal inoculum, and again examined after a 4 week incubation period. The minimum inhibitory concentration at which algal growth was suppressed was then established by visual assessment.

SMILES | solubility in the presence of pyrophosphate (in words) [1] | Solubility ([1]; zinc dithiocarbamate complexes, nil or 0.1 M tetrasodium pyrophosphate) | viable bacteria ([2]; 125 ppm, after 24 HRS) | viable bacteria ([2]; 125 ppm, after 48 HRS) | viable bacteria ([2]; 500 ppm, after 7 DAYS) | viable bacteria ([2]; 500 ppm, after 24 HRS) | viable bacteria ([2]; 500 ppm, after 48 HRS) | Solubility ([1]; 1:2 zinc complex of 1-hydroxy-2-pyridinethione, pebble milled in 0.1 molar pyrophosphate salt (sample a: nil), diluted with distilled water) | MIC AN (Aspergillus niger) | MIC AP (Aureobasidum pullulans) | MIC BS (Bacillus subtills) | MIC CA (Candida albicans) | MIC EC (Eshcerichia coli) | MIC GR (Gliocladium roseum) | MIC PP (Penicillium pinophilum) | MIC PA (Pseudomonas aeruginosa) | MIC SA (Staphylococcus aureus) | effect of increased solubility in pyrophosphate on microbiological activity [3] | MIC (algal growth suppressed) [4]
S=C([S-])NCCNC(=S)[S-].[Zn+2] [EBD, zinc complex of ethylene bis dithiocarbamate] | increased solubility | < 5 ppm | – | – | – | – | – | – | – | – | – | – | – | – | – | – | – | – | –
CN(C)C(=S)[S-].CN(C)C(=S)[S-].[Zn+2] [ZDM, zinc complex of dimethyldithiocarbamate] | – | – | < 10 | < 10 | < 10 | < 10 | < 10 | – | – | – | – | – | – | – | – | – | – | – | –
On1ccccc1=S.On1ccccc1=S.[Zn] [a, 1:2 zinc complex of 1-hydroxy-2-pyridinethione] | improved solubility | – | – | – | – | – | – | < 10 ppm | 25 ppm | 5 ppm | 25 ppm | 25 ppm | 25 ppm | 5 ppm | 5 ppm | NA (Not active at 100 ppm) | 25 ppm | does not adversely affect the microbiological activity | 0.64 ppm
